Reference: US20140005181A1, “SMALL MOLECULE ANTAGONISTS OF THE APELIN RECEPTOR FOR THE TREATMENT OF DISEASE” (Sanford-Burnham Medical Research Institute, priority 2012, published 2014)
Values joined by “and” are separate entries in the source; they are usually repeats but may differ in a detail not shown here. Equal entries are not always repeated. Where two headings read alike, the source gives them in different places.

Columns and labels:
[1] = tested on: benzodiazepinone receptors; experiment: PDSP GPCR binding assay panel
[2] = Hepatic toxicity / cytotoxicity; settings: human, hepatocytes
human hepatocytes = experiment: Hepatic toxicity / cytotoxicity; settings: Table 1
[3] = Hepatic microsome stability, human
[4] = Stability in 1x PBS pH 7.4 (plasma stability assay); format: physicochemical; settings: 1x PBS pH 7.4, 3 hrs
APJ = target: T1, APJ (Homo sapiens, UniProt P35414); experiment: APJ receptor internalization assay; format: cell-based; settings: fixed apelin-13 6.23 nM
T1 sequence (P35414 1-380): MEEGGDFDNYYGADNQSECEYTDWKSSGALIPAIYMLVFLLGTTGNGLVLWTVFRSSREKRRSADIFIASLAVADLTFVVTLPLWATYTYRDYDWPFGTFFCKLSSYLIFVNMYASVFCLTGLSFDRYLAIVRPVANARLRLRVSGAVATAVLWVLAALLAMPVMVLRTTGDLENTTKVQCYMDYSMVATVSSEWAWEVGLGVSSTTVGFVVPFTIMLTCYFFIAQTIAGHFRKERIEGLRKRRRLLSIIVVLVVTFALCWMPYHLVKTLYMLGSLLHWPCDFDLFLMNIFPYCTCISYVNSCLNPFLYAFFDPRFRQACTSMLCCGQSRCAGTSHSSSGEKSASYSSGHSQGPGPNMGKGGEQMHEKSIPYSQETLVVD
Procedure: This graph depicts the mean percent inhibition (±SEM) of apelin-13 mediated receptor internalization. Representative of an experiment that was repeated three times with each data point performed in triplicate. Curve fit analysis was performed using nonlinear regression with a 4-point logistic fit (GraphPad Prism5).

kappa opioid receptor = target: T2, kappa opioid receptor (Homo sapiens, UniProt P41145); experiment: PDSP GPCR binding assay panel
T2 construct: Psychoactive Drug Screening Program (PDSP), University of North Carolina
T2 sequence (P41145 whole entry): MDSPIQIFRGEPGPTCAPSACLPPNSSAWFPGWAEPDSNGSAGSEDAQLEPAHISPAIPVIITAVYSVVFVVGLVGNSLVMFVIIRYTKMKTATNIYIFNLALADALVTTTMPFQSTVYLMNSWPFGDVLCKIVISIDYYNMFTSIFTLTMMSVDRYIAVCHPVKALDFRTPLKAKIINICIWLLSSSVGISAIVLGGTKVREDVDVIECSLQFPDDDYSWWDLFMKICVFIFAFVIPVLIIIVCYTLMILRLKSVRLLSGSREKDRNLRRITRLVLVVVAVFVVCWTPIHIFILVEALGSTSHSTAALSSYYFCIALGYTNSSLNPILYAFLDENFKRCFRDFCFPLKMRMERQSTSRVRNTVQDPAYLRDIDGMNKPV

PAMPA permeability = format: in vitro ADME; settings: for Papp: PAMPA, read-out: PAMPA Pe
Procedure: The PAMPA (Parallel Artificial Membrane Permeability Assay) assay is used as an in vitro model of passive, transcellular permeability. An artificial membrane immobilized on a filter is placed between a donor and acceptor compartment. At the start of the test, drug is introduced in the donor compartment. Following the permeation period, the concentration of drug in the donor and acceptor compartments is measured using UV spectroscopy.

[5] = Hepatic microsome stability, mouse
Plasma stability, human = format: in vitro ADME; settings: Plasma:1x PBS pH 7.4 1:1, 3 hrs

With `O=C(Oc1coc(CSc2ncccn2)cc1=O)c1ccc([N+](=O)[O-])cc1` [Compound 6, 4-OXO-6-((PYRIMIDIN-2-YLTHIO)METHYL)-4H-PYRAN-3-YL-4-NITROBENZOATE] the solubility (Aqueous solubility; 1x PBS, pH 7.4, aqueous buffer) was 3.6 µg/mL and 9.3 µM, the “Aqueous Solubility pH 7.4” value (Aqueous solubility; Table 1, pH 7.4) was 25.5 μg/mL and the solubility (Aqueous solubility; aqueous media, pH 5, aqueous buffer) was 3 µg/mL and 7.8 µM. For the same compound, the solubility (Aqueous solubility; aqueous media, pH 6.2, aqueous buffer) was 3.6 µg/mL and 9.3 µM, the solubility (Aqueous solubility; aqueous media, pH 7.4, aqueous buffer) was 9.8 µg/mL and 25 µM and the “Plasma Stability (% Remaining @3 hrs)” value (Plasma stability, mouse; Mouse, Plasma:1x PBS pH 7.4 1:1, 3 hrs) was 0.88%. The “Plasma Stability” value (Plasma stability, mouse; Table 1, species and matrix not given) was 42.2%, the “binding activity at benzodiazepinone receptors” value [1] was “significant activity” and the CC50 [2] was > 50 µM. For the same compound, the Cytotoxicity (human hepatocytes) was >50 µM, the “Plasma Protein Binding (mouse)” value (Plasma protein binding; mouse) was 99.1% and the “detection in the plasma protein binding assay” value (Plasma protein binding; species not given, 18 h incubation) was “undetectable”. For the same compound, the “Hepatic Microsome Stability Human” value ([3]; Human) was 4.19, the “% remaining at 60 min in human liver homogenates” value ([3]; human, 60 min) was 4.2% and the “Plasma Stability (% Remaining @3 hrs), 1x PBS pH 7.4” value ([4]; first value (Human position)) was 46.97%. The “Plasma Stability (% Remaining @3 hrs), 1x PBS pH 7.4” value ([4]; second value (Mouse position)) was 42.18%, the “antagonism of apelin-13 induced APJ receptor internalization” value (APJ) was “antagonized the ability of apelin-13 to induce APJ receptor internalization” and the “binding activity at kappa opioid receptor” value (kappa opioid receptor) was “significant activity”. For the same compound, the “PAMPA Pe (×10^−6 cm/s)” value (PAMPA permeability; Donor pH 7.4, Acceptor pH 7.4) was 271 ×10^−6 cm/s, the Papp (PAMPA permeability; Donor pH 5.0, Acceptor pH 7.4) was 195 ×10⁻⁶ cm/s and the Papp (PAMPA permeability; Donor pH 6.2, Acceptor pH 7.4) was 240 ×10⁻⁶ cm/s. For the same compound, the “Permeability (PAMPA) pH 7.4” value (PAMPA permeability; Table 1, pH 7.4) was 271.0 × 10^−6 cm/s, the “Hepatic Microsome Stability” value ([5]; Table 1, species not given, equals the mouse value) was 4.9% and the “Hepatic Microsome Stability Mouse” value ([5]; mouse) was 4.89. For the same compound, the “% remaining at 60 min in mouse liver homogenates” value ([5]; mouse, 60 min) was 4.9% and the “Plasma Stability (% Remaining @3 hrs)” value (Plasma stability, human) was 0.26%.
